Test results: patent US20230277483A1, “COMPOSITIONS AND METHODS TO TREAT INFLAMMATION” (University of Iowa Research Foundation, priority 2022, published 2023)

Tests used:
Pg (ATCC 49417) = assay: Pg proliferation measured by OD600 under HCA; type: cell-based, Porphyromonas gingivalis; details: HCA at 0.1 and 10 μM; after 48 and 72 hrs vs untreated controls
Description: Pg (ATCC 49417), a key pathogen of periodontitis, was cultured at 24 well-plates with BHI medium at 90% N2, 5% H2, 5% CO2. HCA at 0.1 and 10 μM was applied.

[1] = tested on: oral and fecal microbiomes of obese mice; assay: Oral and fecal microbiome composition (16S rRNA) in DIO mice; type: in vivo, mouse; details: 100 μl of HCA at 0.2 and 0.5 μM I.P. three times a week for 3 weeks
Description: (§1) HCA promotes proliferation of health related bacteria and inhibits proliferation and attachment of periodontopathogenic bacteria. Promoting the growth of health-related commensal bacteria while inhibiting proliferation and attachment of pathogenic bacteria may be effective at preventing or treating periodontal inflammation. To determine if HCA has an effect on the growth properties of commensal bacteria and periodontopathogens, HCA at different concentrations was added to aerobic culture of S. mitis and S. oralis and anaerobic culture of T. denticola as described in our published manuscript (see detail in Shu et al, Journal of Periodontology, 2022). FIGS. 18A-C summarize the functions of HCA on the proliferation of specific commensal and pathogenic bacteria. […] Furthermore, the function of HCA on P. gingivalis attachment, a key parameter of adhesion and biofilm formation by periodontopathogenic bacteria, was investigated. […] The composition of the microbiomes was determined by amplifying the V3 and V4 regions of the 16S rRNA genes. Raw data in FASTQ format were filtered and denoised using DADA2 (Divisive Amplicon Denoising Algorithm) to generate amplicon sequence variants (ASV) or operational taxonomical units (OTUs) that were then analyzed by QIIME2.

[2] = tested on: primary human gingival fibroblasts (HGF); assay: MTT toxicity assay; type: cell-based; details: HCA from 0.1 to 50 μM; 24 and 48 hours
Pg = Pg attachment (early biofilm formation, colonization) on culture plates; type: cell-based, Porphyromonas gingivalis
Description: Sg metabolites promote commensal bacterial proliferation and inhibit periodontopathogenic bacterial proliferation and colonization. Commensal bacteria, Sg, S. sanguinis (Ss, ATCC10556), S. mitis (Sm, ATCC49456) and S. oralis (So, ATCC 35037) were cultured in BHI medium. In addition, pathogenic bacteria, Pg was cultured using BHI and Tf (ATCC43037), and Td (ATCC 35405) were grown in Thioglycollate medium with vitamin K and Hemin in 90% N2, 5% H2, 5% CO2. The Sg metabolites were diluted using DMEM and added to the bacteria with the similar OD600 value. The same amount of DMEM was used as a control. During the exponential growth of bacteria, the OD600 value was measured to determine the proliferation. […] In addition, to determine the function of Sg metabolites on Pg colonization, Pg were inoculated in 24-well plates containing BHI or BHI supplemented with DMEM or Sg metabolites. […]
HCA promotes proliferation of health related bacteria and inhibits proliferation and attachment of periodontopathogenic bacteria. […] The composition of the microbiomes was determined by amplifying the V3 and V4 regions of the 16S rRNA genes. Raw data in FASTQ format were filtered and denoised using DADA2 (Divisive Amplicon Denoising Algorithm) to generate amplicon sequence variants (ASV) or operational taxonomical units (OTUs) that were then analyzed by QIIME2.

[3] = tested on: human monocyte-derived macrophages (MDM); assay: MTT toxicity assay; type: cell-based; details: HCA from 0.1 to 50 μM; 24 and 48 hours
Description: as §1

## O=C(O)CCCCCO [HCA, 6-hydroxycaproic acid]
Pg (ATCC 49417)
  OD600 value of Pg: significantly reduced
[1]
  effect on composition of the microbiomes: dose dependent
  representation of Streptococcus danieliae and other unclassified streptococci in the oral microbiome: large increases
[2]
  toxicity (MTT assay): No toxicity
Pg; HCA at 0.01 μM
  attachment of P. gingivalis: less of an effect
Pg; HCA at 0.05 μM vs untreated control, optical density
  attachment of P. gingivalis: significantly reduced
[3]
  toxicity (MTT assay): No toxicity
